# Data: patent US7884234B2, “N-phenyloxamide derivatives” (Institute of Medicinal Molecular Design, inc., priority 2006, dated 2011)
# Assays:
# Format in all cases: biochemical
# recombinant human PAI-1 [1] = target: T1, recombinant human PAI-1 (Homo sapiens, UniProt P05121); experiment: Test Example 1: human PAI-1 inhibitory activity (tPA fluorogenic substrate assay, pH7.5 Tris buffer); conditions: for inhibition at 5 µM: pH 7.5, compound 5 μM; for inhibition at 5 µM / inhibition at 10 µM / inhibition at 25 µM: read-out: Inhibition Rate of Human PAI-1 Activity (%); for inhibition at 10 µM: pH 7.5, compound 10 μM; for inhibition at 25 µM: pH 7.5, compound 25 μM
# T1 construct: purchased Molecular Innovations, Inc
# Excerpt: <Composition of pH7.5 Tris Buffer)
# 0.01% Tween80 (SIGMA-ALDRICH Corporation)
# recombinant human PAI-1 [2] = target: T1, recombinant human PAI-1; experiment: Test Example 2: human PAI-1 inhibitory activity (tPA fluorogenic substrate assay, pH7.4 HEPES buffer); conditions: for inhibition at 3 µM: pH 7.4, read-out: Inhibition Rate of Human PAI-1 Activity (%); for IC50: pH7.4 HEPES buffer, obtained from Table 5 results
# Experimental: (§1) Except using the pH7.4 HEPES buffer instead of pH7.5 Tris buffer, and the change of incubation time from 15 minutes to 10 minutes of the mixed solution added by two-chain tPA solution, tests were carried out similarly to the Test Example 1.
# <Compotion of pH7.4 HEPES Buffer>
# 0.1% Polyethylene glycol 8,000 (Hampton Research Corporation)
# 2 mM Dimethyldecylphoshine oxide [Apo-10] (Fluka Corporation)
# recombinant rat PAI-1 = target: T2, recombinant rat PAI-1 (Rattus norvegicus, UniProt P20961); experiment: Test Example 3: rat PAI-1 inhibitory activity (tPA fluorogenic substrate assay, pH7.4 HEPES buffer); conditions: for IC50: pH7.4 HEPES buffer, obtained from Table 7 results
# T2 construct: purchased Molecular Innovations, Inc
# T2 sequence (P20961 24-402): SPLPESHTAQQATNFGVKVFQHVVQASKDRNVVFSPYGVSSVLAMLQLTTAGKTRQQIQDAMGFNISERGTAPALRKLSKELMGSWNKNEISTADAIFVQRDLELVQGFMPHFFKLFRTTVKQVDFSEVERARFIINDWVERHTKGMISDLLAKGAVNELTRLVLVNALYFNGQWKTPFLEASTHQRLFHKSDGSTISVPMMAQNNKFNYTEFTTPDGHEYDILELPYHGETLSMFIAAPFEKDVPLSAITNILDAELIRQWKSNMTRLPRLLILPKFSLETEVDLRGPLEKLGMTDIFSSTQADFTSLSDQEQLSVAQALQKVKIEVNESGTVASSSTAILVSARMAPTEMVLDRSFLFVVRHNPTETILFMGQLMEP
# Experimental: as §1
# recombinant human PAI-1 [3] = target: T1, recombinant human PAI-1; experiment: Test Example 4: human PAI-1 inhibitory activity (amount of PAI-1 bound to plate-coated tPA, ELISA); conditions: PAI-1 50 ng/ml bound to coated tPA, read-out: Inhibition Rate of Human PAI-1 Activity (%); for inhibition at 0.1 µM: compound 0.1 μM; for inhibition at 0.3 µM: compound 0.3 μM
# Experimental: 100 μl of tPA solution where one-chain recombinant tPA (hereinafter refereed to as tPA; American diagnostica, inc.) diluted with Buffer A to achieve a concentration of 10 μg/ml was added to each well of 96-well plate (Nunc Maxisorp), incubated for one night at […] to coated with tPA. Then, after suction of tPA solution from the 96-well plate, rinsed successively with Buffer A and Buffer B.
# To Buffer B, solutions of the present application compound dissolved with DMSO (final DMSO concentration: 0.2%) and recombinant human PAI-1 (Molecular Innovations, Inc.) were added and blended so that the final concentrations would be 0.1 to 3.0 μM and 50 ng/ml respectively, and were incubated for 15 minutes on ice. These mixed solutions were added to rinsed 96-well plates at 100 μl/well, and incubated for 60 minutes at room temperature. To prepare calibration curve, PAI-1 solutions without the present application compound (solutions where the final concentrations being 100, 50, 25, 12.5, 6.25, 3.13, 1.56 ng/ml PAI-1) were added at 100 μl/well, and were incubated for 60 minutes at room temperature, as standard.
# After incubation, the reaction mixture was suction removed, and rinsed each well with Wash Buffer. Next, anti-human PAI-1 monoclonal antibody (PROGEN Inc.) diluted with Buffer C to be 3.0 μg/ml was added to the 96-well plate at 100 μl/well, and incubated for 1 hour at room temperature. After rinsing each well with Wash Buffer, alkaline phosphatase-labeled goat anti-mouse IgG (H+L) (Jackson ImmunoResearch, Inc.) diluted with Buffer D to be 0.12 μg/ml was added at 100 μl/well, and incubated for 1 hour at room temperature. After rinsing each well with Wash Buffer, 1.0 mg/ml p-Nitrophenyl Phosphate (SIGMA) was added to the 96-well plate at 100 μl/well to start the reaction. After 30 to 60 minutes, 25 μl of 0.5 N NaOH was added to stop the reaction, and the absorbance was measured at 405 nm using a multiplate reader (GENios; TECAN G.M.B.H.).
# Based on the calibration curve prepared from the standard wells, amounts of PAI-1 bound to tPA in the wells treated with the present application compound were calculated, and the PAI-1 inhibition rates by the present application compounds were obtained by the following equation. [PAI-1 Inhibition Rate (%)]=[1-(amount of PAI-1 bound to tPA on the well treated with the present application compound)/(amount of PAI-1 bound to tPA on the well treated with PAI-1 solution without present application compound (solution with the final concentration of 50 ng/ml PAI-1)]×100 <Composition of Buffer A> 0.1 M Tris-HCl-150 150 mM NaCl pH 7.7 <Composition of Buffer B> 50 mM sodium phosphate 0.1 M NaCl 1 mM EDTA pH 6.6 <Composition of Buffer C> 50 mM sodium phosphate 100 mM NaCl pH 7.4 <Composition of Buffer D> 0.01 M Tris-HCl 0.25 M NaCl pH 8.0 <Composition of Wash Buffer> 0.05% Tween 20 0.1% BSA in Buffer A <Composition of p-Nitrophenyl Phosphate Solution> 1 M Diethanolamine 0.5 mM MgCl2 p-Nitrophenyl phosphate pH 9.8
# T1 sequence (P05121 24-402): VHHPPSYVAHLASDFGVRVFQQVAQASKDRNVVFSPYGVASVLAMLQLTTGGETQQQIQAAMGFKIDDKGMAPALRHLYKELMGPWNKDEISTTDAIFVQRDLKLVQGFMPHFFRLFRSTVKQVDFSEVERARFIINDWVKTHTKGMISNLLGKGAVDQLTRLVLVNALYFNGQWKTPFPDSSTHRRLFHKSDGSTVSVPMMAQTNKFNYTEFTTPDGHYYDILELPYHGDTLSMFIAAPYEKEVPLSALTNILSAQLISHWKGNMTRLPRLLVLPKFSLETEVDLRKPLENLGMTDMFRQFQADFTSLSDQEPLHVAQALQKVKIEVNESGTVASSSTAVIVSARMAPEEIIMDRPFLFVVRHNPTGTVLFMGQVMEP
SMILES,inhibition at 5 µM (recombinant human PAI-1 [1]),inhibition at 10 µM (recombinant human PAI-1 [1]),IC50 (recombinant human PAI-1 [2]),IC50 (recombinant rat PAI-1),inhibition at 0.1 µM (recombinant human PAI-1 [3]),other results
"CC(C)(C)c1ccc(CN(C(=O)C(=O)O)c2ccc(-c3ccc(C(F)(F)F)cc3)cc2)cc1 [compound 24, N-[4-(tert-butyl)benzyl]-N-[4′-(trifluoromethyl)phenyl-4-yl]oxamic Acid]",,,,,,Inhibition Rate of Human PAI-1 Activity (%) (recombinant human PAI-1 [1]; compound 5 μM): 7%; Inhibition Rate of Human PAI-1 Activity (%) (recombinant human PAI-1 [1]; compound 10 μM): 35%; Inhibition Rate of Human PAI-1 Activity (%) (recombinant human PAI-1 [1]; compound 25 μM): 74%
"CCC(CC)Oc1ccc(-c2ccc(OC(F)(F)F)cc2)cc1N(Cc1ccc(C(C)(C)C)cc1)C(=O)C(=O)O [compound 79, N-[4-(tert-butyl)benzyl]-N-[4-(1-ethylpropoxy)-4′-(trifluoromethoxy)biphenyl-3-yl]oxamic Acid]",,,0.74 µM,1.18 µM,8%,"inhibition at 3 µM (recombinant human PAI-1 [2]): > 99%; inhibition at 10 µM (recombinant rat PAI-1; pH 7.4, read-out: Inhibition Rate of Rat PAI-1 Activity (%)): > 99%"
"CCCCc1ccc(CN(C(=O)C(=O)O)c2ccc(-c3ccc(C(C)(C)C)cc3)cc2)cc1 [compound 86, N-(4-butylbenzyl)-N-[4′-(tert-butyl)biphenyl-4-yl]oxamic Acid]",,,0.73 µM,1.39 µM,0%,inhibition at 3 µM (recombinant human PAI-1 [2]): > 99%; inhibition at 0.3 µM (recombinant human PAI-1 [3]): 0%
"CCN(CC)c1ccc(N(Cc2ccc(C(C)(C)C)cc2)C(=O)C(=O)O)c(-c2ccc(OC(F)(F)F)cc2)c1 [compound 88, N-[4-(tert-butyl)benzyl]-N-[5-diethylamino-4′-(trifluoromethoxy)biphenyl-2-yl]oxamic Acid]",,,1.13 µM,1.89 µM,0%,inhibition at 0.3 µM (recombinant human PAI-1 [3]): 0%

# More lines, main results first:
inhibition at 5 µM (recombinant human PAI-1 [1]),inhibition at 10 µM (recombinant human PAI-1 [1]),SMILES,IC50 (recombinant human PAI-1 [2]),IC50 (recombinant rat PAI-1),inhibition at 0.1 µM (recombinant human PAI-1 [3]),other results
6%,12%,"O=C(O)C(=O)N(Cc1ccccc1)c1ccc(-c2ccc(OC(F)(F)F)cc2)cc1 [compound 6, N-benzyl-N-[4′-(trifluoromethoxy)biphenyl-4-yl]oxamic Acid]",,,,
15%,38%,"O=C(O)C(=O)N(Cc1ccc(C(F)(F)F)cc1)c1ccc(-c2ccc(OC(F)(F)F)cc2)cc1 [compound 34, N-[4′-(trifluoromethoxy)biphenyl-4-yl]-N-[4-(trifluoromethyl)benzyl]oxamic Acid]",,,,inhibition at 25 µM (recombinant human PAI-1 [1]): 81%
25%,56%,"CC(C)(C)c1ccccc1N(C(=O)C(=O)O)c1ccccc1-c1ccc(OC(F)(F)F)cc1 [compound 37, N-[2-(tert-butyl)phenyl]-N-[4′-(trifluoromethoxy)biphenyl-2-yl]oxamic Acid]",,,,inhibition at 25 µM (recombinant human PAI-1 [1]): 96%
